{"source": "patent US20140030808A1", "about": "“Method for Cellular RNA Expression” (BIONTECH AG, priority 2010, published 2014)", "system": "Primary human foreskin fibroblasts (BJ, CCD1079Sk, HFF)", "type": "cell-based", "conditions": "2 μM; for luciferase expression after transient treatment: BJ and CCD1079SK", "note": "Like-named read-outs stand apart in the source and are kept apart here.", "data": [{"smiles": "Nc1ncc2[nH]cnc2n1", "note": "[2-aminopurine]", "values": [{"measurement": "luciferase expression after transient treatment", "setting": "7 h incubation period", "value": "did not results in a significant increase of luciferase expression"}, {"measurement": "luciferase expression after transient treatment", "setting": "24 h treatment", "value": "rapidly reversed after removal of the inhibitors"}, {"measurement": "luciferase expression after transient treatment", "setting": "48 h treatment", "value": "less efficient than a permanent treatment"}, {"measurement": "duration of high luciferase expression levels", "setting": "permanent inhibition", "value": 5, "unit": "days"}]}]}
